Experimental data taken from patent US4309305A, “In vitro removal of actinide (IV) ions” (priority 1979, dated 1982).

Columns and labels:
[1] = Distribution of ^238 Pu-citrate in Mouse Tissues (actinide-ion sequestering activity, animal studies); type: in vivo; set-up: Liver, distribution of ^238 Pu-citrate (mean) / Skel, distribution of ^238 Pu-citrate (mean) / G.I., distribution of ^238 Pu-citrate (mean) / Kidney, distribution of ^238 Pu-citrate (mean) / Total, distribution of ^238 Pu-citrate: unit not given here
Experimental: Specifically, animal studies were carried out with compounds 2, 3, 4, and 10.
Distribution of ^238 Pu-Citrate in Mouse Tissues
Age of animals 74 weeks 74 weeks
^(b) Animals injected I.P. (Intraperitoneum)
(§1) Distribution of ^238 Pu-citrate in Mouse Tissues
Age of Animals 68 weeks 68 weeks
^(a) Animals injected I.M. (Intramuscular)
as §1
^(b) Animals injected I.P.
Age of animals 18 weeks 18 weeks
^(a) Animals injected I.M.

[2] = pH-titration of the constituent catechol groups; type: physicochemical; settings: 4 protons, 4 constituent catechol groups
Experimental: Compound 2. Using method B, precusor 3 (1.0 g, 1.0 mmol) dissolved in CH2 Cl2 (25 ml) was added dropwise (15 min) via an addition funnel to an ice bath cooled, vigorously stirred solution of BBR3 (2 ml, 21 mmol) in CH2 Cl2 solution (25 ml). The ice bath was allowed to warm up to room temperature as the reaction slurry was stirred overnight. Cautious addition of H2 O (20 ml) was followed by an additional 2 hrs stirring to hydrolyze all boron compounds. Crude product was collected by filtration and washed well with H2 O. The pink-tan solid was dissolved in MeOH and precipitated by the addition of Et2 O. Drying at 115° (5-10 microns) overnight gave the demethylated product, compound 2 (0.88 mmol, 88%) as hygroscopic powder which analyzed with two waters of crystallization: m.p.
Compound 3 (1.0 g, 1.2 mmol) was dissolved in 98% H2 SO4 (5 ml), then SOCl2 (5 ml, 55 mmol) was added dropwise over a period of 1 hr with vigorous stirring. The reactants were protected from the atmosphere with a Drierite tube. After stirring overnight, the reaction mixture was poured onto ice. Workup as in method C gave white solid, 1.49 g (1.0 mmol, 85%) which analyzed as compound 4.3 NaCl.H2 O: IR (KBr) identical to that recorded in method A; purity also established by pH-titration giving pKa1 8.12 (4 protons) and pKa2 12.0 (4 protons) for the four constituent catechol groups.
Using precisely the same Method D, compound 7 was converted to compound 8. Thus was obtained hygroscopic white solid, 1.4 g (90%); IR (KBr) 2800-3700 s, 1600 s (>N--CO--), 1475, 1425 m, 1150-1300 s (--SO3 ^-1), 1100, 1045 s (--SO3^-), 620 (--SO3^-); purity also established by pH-titration giving pKa1 7.49 (4 protons) and pKa2 12.1 (4 protons) for the four constituent catechol groups.

[3] = qualitative observation of dissolution of Pu(IV) in the presence of the compound
animals = assay: Toxicity studies / toxicity to animals; settings: in vivo
[4] = I.M., killed 1 day after Pu injection, 18 weeks old
[5] = I.P., killed 1 day after Pu injection, 13.5 weeks old
[6] = I.P., killed 2 days after Pu injection, 74 weeks old
[7] = I.M., killed 2 days after Pu injection, 68 weeks old

In the case of “1,4,8,11-N,N',N'',N'''-Tetra(2,3-dihydroxybenzoyl)tetraazaundecane potassium sulfonate [Compound 10]”, the “Feces, distribution of ^238 Pu-citrate (mean)” value (“Feces, distribution” for short) [1, 4] is reported as 2.2, the “G.I., distribution of ^238 Pu-citrate (mean)” value (“G.I., distribution” below) [1, 4] is reported as 10.2 and the “Kidney, distribution of ^238 Pu-citrate (mean)” value (shortened to “Kidney, distribution”) [1, 4] is reported as 4.8. For the same molecule, the “Liver, distribution of ^238 Pu-citrate (mean)” value (shortened to “Liver, distribution”) [1, 4] was 28.8, the “Skel, distribution of ^238 Pu-citrate (mean)” value (from here on “Skel, distribution”) [1, 4] was 12.1 and the “Skin, distribution of ^238 Pu-citrate (mean)” value (“Skin, distribution” below) [1, 4] was 5.7. For the same molecule, the “Soft Tis, distribution of ^238 Pu-citrate (mean)” value (from here on “Soft Tis, distribution”) [1, 4] was 7.1, the “Total, distribution of ^238 Pu-citrate” value [1, 4] was 101.1 and the “Urine, distribution of ^238 Pu-citrate (mean)” value (shortened to “Urine, distribution”) [1, 4] was 29.2.
With “1,5,9,13-N,N',N'',N'''-Tetra(2,3-dihydroxybenzoyl)tetraazacyclohexadecane sodium sulfonate [Compound 4]” the “Feces, distribution” value [1, 5] was 3.1, the “G.I., distribution” value [1, 5] was 8.2 and the “Kidney, distribution” value [1, 5] was 3.9. For the same molecule, the “Liver, distribution” value [1, 5] was 24.8, the “Skel, distribution” value [1, 5] was 15.7 and the “Skin, distribution” value [1, 5] was 4.1. For the same molecule, the “Soft Tis, distribution” value [1, 5] was 6.4, the “Total, distribution of ^238 Pu-citrate” value [1, 5] was 100 and the “Urine, distribution” value [1, 5] was 33.8. It also gave a pKa1 [2] of 8.12 and a pKa2 [2] of 12.0.
In the case of “1,6,11,16-N,N',N'',N'''-Tetra(2,3-dihydroxybenzoyl)tetraazahexadecane potassium sulfonate [Compound 8]”, the pKa1 [2] is reported as 7.49 and the pKa2 [2] is reported as 12.1.
In the case of `O=C(c1cccc(O)c1O)N1CCCN(C(=O)c2cccc(O)c2O)CCN(C(=O)c2cccc(O)c2O)CCCN(C(=O)c2cccc(O)c2O)CC1` [Compound 1, 1,4,8,11-N,N',N'',N'''-Tetra(2,3-dihydroxybenzoyl)tetraazacyclotetradecane], the “dissolution of Pu(IV) in presence of compound” value ([3]; even at high pH, qualitative) is reported as “Pu(IV) dissolved in the presence of compound 1 even at high pH” and the “formation constant for the Pu(IV) complex” value ([3]; inferred from dissolution of Pu(IV) and Ksp for Pu(OH)4) is reported as “very high formation constant”.
With `O=C(c1ccc([N+](=O)[O-])c(O)c1O)N1CCCN(C(=O)c2ccc([N+](=O)[O-])c(O)c2O)CCN(C(=O)c2ccc([N+](=O)[O-])c(O)c2O)CCCN(C(=O)c2ccc([N+](=O)[O-])c(O)c2O)CC1` [Compound 2, 1,4,8,11-N,N',N'',N'''-Tetra(2,3-dihydroxy-4-nitrobenzoyl)tetraazacyclotetradecane] the toxicity to animals (animals) was “toxic to animals”, the “Feces, distribution” value [1, 6] was 5.4 and the “G.I., distribution” value [1, 6] was 16.3. The “Kidney, distribution” value [1, 6] was 6.0, the “Liver, distribution” value [1, 6] was 36.6 and the “Skel, distribution” value [1, 6] was 7.9. For the same molecule, the “Skin, distribution” value [1, 6] was 11.2, the “Soft Tis, distribution” value [1, 6] was 14.8 and the “Total, distribution of ^238 Pu-citrate” value [1, 6] was 100. For the same molecule, the “Urine, distribution” value [1, 6] was 1.8, the pKa1 [2] was 5.59 and the pKa2 [2] was 11.8.
In the case of `O=C(c1cccc(O)c1O)N1CCCN(C(=O)c2cccc(O)c2O)CCCN(C(=O)c2cccc(O)c2O)CCCN(C(=O)c2cccc(O)c2O)CCC1` [Compound 3, 1,5,9,13-N,N',N'',N'''-Tetra(2,3-dihydroxybenzoyl)tetraazacyclohexadecane], the acute toxicity (animals) is reported as “substantially acutely non-toxic”, the “G.I., distribution” value [1, 7] is reported as 4.4 and the “Kidney, distribution” value [1, 7] is reported as 42.1. The “Liver, distribution” value [1, 7] was 23.3, the “Skel, distribution” value [1, 7] was 20.3 and the “Total, distribution of ^238 Pu-citrate” value [1, 7] was 101.6. For the same molecule, the “Urine, Feces (one value printed between both lines), distribution of ^238 Pu-citrate (mean)” value [1, 7] was 11.5.
